Results as given in PubChem BioAssay AID1845199 (Molecular Pharmacology Branch, DTP, NCI, 2023).

Test system: 556581-035-R-J1 tumor spheroid viability, % test/control
Experiment: Anticancer human tumor 556581-035-R-J1 patient-derived ovarian carcinoma cell line growth inhibition
Details: spheroids with HUVEC and MSC; for IC50: curve of first compound; for viability, T/C: stronger effect = lower value
Procedure, shortened: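 Single agents and combinations were tested on spheroids built from tumor cells plus HUVEC and hMSC, at half-log dilutions starting at or near clinical Cmax, else 10 microM; final DMSO 0.25% (v/v).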

[1] = second compound 30 pM, first compound 0.0316 µM
[2] = second compound 30 pM, first compound 0.1 µM
[3] = second compound 30 pM, first compound 0.316 µM
[4] = second compound 30 pM, first compound 1 µM
[5] = second compound 30 pM, first compound 3.16 µM
[6] = second compound 30 pM, first compound 10 µM
[7] = second compound 94.9 pM, first compound 0.0316 µM
[8] = second compound 94.9 pM, first compound 0.1 µM
[9] = second compound 94.9 pM, first compound 0.316 µM
[10] = second compound 94.9 pM, first compound 1 µM
[11] = second compound 94.9 pM, first compound 3.16 µM
[12] = second compound 94.9 pM, first compound 10 µM
[13] = second compound 0.0003 µM, first compound 0.0316 µM
[14] = second compound 0.0003 µM, first compound 0.1 µM
[15] = second compound 0.0003 µM, first compound 0.316 µM
[16] = second compound 0.0003 µM, first compound 1 µM
[17] = second compound 0.0003 µM, first compound 3.16 µM
[18] = second compound 0.0003 µM, first compound 10 µM
[19] = second compound 0.000949 µM, first compound 0.0316 µM
[20] = second compound 0.000949 µM, first compound 0.1 µM
[21] = second compound 0.000949 µM, first compound 0.316 µM
[22] = second compound 0.000949 µM, first compound 1 µM
[23] = second compound 0.000949 µM, first compound 3.16 µM
[24] = second compound 0.000949 µM, first compound 10 µM
[25] = second compound 0.003 µM, first compound 0.0316 µM
[26] = second compound 0.003 µM, first compound 0.1 µM
[27] = second compound 0.003 µM, first compound 0.316 µM
[28] = second compound 0.003 µM, first compound 1 µM
[29] = second compound 0.003 µM, first compound 3.16 µM
[30] = second compound 0.003 µM, first compound 10 µM
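Further: spheroids exposed to compounds for 7 days before viability read.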

Row | Structure (SMILES) | IC50 (second compound 30 pM) [nM] | IC50 (second compound 94.9 pM) [nM] | IC50 (second compound 0.0003 µM) [nM] | IC50 (second compound 0.000949 µM) [nM] | IC50 (second compound 0.003 µM) [nM] | viability, T/C [1] [%] | viability, T/C [2] [%] | viability, T/C [3] [%] | viability, T/C [4] [%] | viability, T/C [5] [%] | viability, T/C [6] [%] | viability, T/C [7] [%] | viability, T/C [8] [%] | viability, T/C [9] [%] | viability, T/C [10] [%] | viability, T/C [11] [%] | viability, T/C [12] [%] | viability, T/C [13] [%] | viability, T/C [14] [%] | viability, T/C [15] [%] | further results
1 | COc1ccc([C@@H](O)c2cc(-c3ncnc4cc(N5CCOCC5)ccc34)c(F)cc2Cl)nn1 + COc1cc2c(cc1O)CCNC21CSC2c3c(OC(C)=O)c(C)c4c(c3C(COC1=O)N1C(O)C3Cc5cc(C)c(OC)c(O)c5C(C21)N3C)OCO4 | 1770 | 1960 | 2060 | < 31.6 | < 31.6 | 97.4 | 102 | 88.2 | 60.5 | 40.1 | 32.8 | 104 | 102 | 90.5 | 61.6 | 42.7 | 32.3 | 99.5 | 104 | 86.8 | viability, T/C [16]: 67.8%; viability, T/C [17]: 40%; viability, T/C [18]: 22.4%; viability, T/C [19]: 42.1%; viability, T/C [20]: 36.5%; viability, T/C [21]: 12.3%; viability, T/C [22]: 0.69%; viability, T/C [23]: 0.37%; viability, T/C [24]: 1.03%; viability, T/C [25]: 0.59%; viability, T/C [26]: 0.87%; viability, T/C [27]: 0.65%; viability, T/C [28]: 0.7%; viability, T/C [29]: 0.82%; viability, T/C [30]: 0.98%
2 | Cc1cc(C)c(CNC(=O)c2cc(-c3ccc(CN4CCOCC4)cc3)cc3c2cnn3C2CCCC2)c(=O)[nH]1 + COc1cc2c(cc1O)CCNC21CSC2c3c(OC(C)=O)c(C)c4c(c3C(COC1=O)N1C(O)C3Cc5cc(C)c(OC)c(O)c5C(C21)N3C)OCO4 | > 10000 | > 10000 | > 10000 | < 31.6 | < 31.6 | 100 | 108 | 105 | 117 | 112 | 97.5 | 109 | 108 | 110 | 109 | 110 | 88.3 | 99.9 | 100 | 103 | viability, T/C [16]: 103%; viability, T/C [17]: 98.4%; viability, T/C [18]: 88.3%; viability, T/C [19]: 45.2%; viability, T/C [20]: 43.5%; viability, T/C [21]: 46%; viability, T/C [22]: 30.7%; viability, T/C [23]: 24.5%; viability, T/C [24]: 11.6%; viability, T/C [25]: 1.01%; viability, T/C [26]: 0.92%; viability, T/C [27]: 0.9%; viability, T/C [28]: 0.75%; viability, T/C [29]: 0.82%; viability, T/C [30]: 1.15%
3 | [2H]c1nc(C)nc([2H])c1-c1cc(NC[C@@H](C)c2cccc3c(C(=O)NC)ccnc23)ncn1 + COc1cc2c(cc1O)CCNC21CSC2c3c(OC(C)=O)c(C)c4c(c3C(COC1=O)N1C(O)C3Cc5cc(C)c(OC)c(O)c5C(C21)N3C)OCO4 | > 10000 | > 10000 | > 10000 | < 31.6 | < 31.6 | 105 | 119 | 116 | 120 | 110 | 116 | 113 | 118 | 108 | 113 | 118 | 125 | 101 | 110 | 102 | viability, T/C [16]: 104%; viability, T/C [17]: 108%; viability, T/C [18]: 109%; viability, T/C [19]: 40.9%; viability, T/C [20]: 46.4%; viability, T/C [21]: 42.9%; viability, T/C [22]: 46.3%; viability, T/C [23]: 33.9%; viability, T/C [24]: 31.1%; viability, T/C [25]: 1.6%; viability, T/C [26]: 0.73%; viability, T/C [27]: 0.75%; viability, T/C [28]: 0.97%; viability, T/C [29]: 1.05%; viability, T/C [30]: 1.32%
